Results on four compounds are retold here after US5225571A, “Substituted dihydroxy-bis-[5-hydroxy-2(5H)-furanone-4-yl]-alkanes as anti-inflammatory agents” (Allergan, Inc., priority 1991, dated 1993).

This assay has as its target bee venom phospholipase A2 (Apis mellifera, UniProt P00630). Kind of assay: biochemical. Type of assay: biochemical. To be noted: read-out: 50% inhibition (IC50) of bee venom phospholipase A2.

Read-outs that look alike come from different tables or passages of the source.

Chain of bee venom phospholipase A2 (P00630 34-167 limits assumed): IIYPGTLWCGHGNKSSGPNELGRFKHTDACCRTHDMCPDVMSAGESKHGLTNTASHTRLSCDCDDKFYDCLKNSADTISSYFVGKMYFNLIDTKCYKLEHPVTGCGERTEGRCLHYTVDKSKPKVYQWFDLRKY

For `CC(C)(C)C(=O)OC(CCCCCCCCCCCCC(OC(=O)C(C)(C)C)C1=CC(=O)OC1OC(=O)Nc1ccccc1)C1=CC(=O)OC1OC(=O)Nc1ccccc1` (stereo not shown) [Compound 4, 1,14-Di-(tert-butanoyloxy)-1,14-bis[5-(N-phenylcarbamoyl)-2(5H)-furano-4-yl]-tetradecane], the IC50 is more than 1000 nM.

On to `O=C1C=C(C(CCCCCCCCCCC(OC(=O)Nc2ccccc2)C2=CC(=O)OC2O)OC(=O)Nc2ccccc2)C(O)O1` (stereo not shown) [Compound 2, 1,12-Di(N-phenylcarbamoyl)-1,12-bis[5-hydroxy-2(5H)-furano-4-yl] dodecane], for which the IC50 (pH 7.4) is 30 nM.

As for `CC(=O)OC(CCCCCCCCCCCCC(OC(C)=O)C1=CC(=O)OC1O)C1=CC(=O)OC1O` (stereo not shown) [Compound 1, 1,14-Diacetoxy-1,14-bis[5-hydroxy-2(5H)-4-furanoyl]tetradecane], under “pH 7.4”, the IC50 is 10 nM.

Consider `CC(C)(C)C(=O)OC(CCCCCCCCCCCCC(OC(=O)C(C)(C)C)C1=CC(=O)OC1O)C1=CC(=O)OC1O` (stereo not shown) [Compound 3, 1,14-Di(tert-butanoyloxy)-1,14-bis[5-hydroxy-2(5H)-furano-4-yl]tetradecane], for which the IC50 (pH 7.4) worked out at 20 nM.

As a reminder, the IC50 is the concentration at which inhibition is half-maximal.
